Source: paper PMC11951083, “Highly Specific Miniaturized Fluorescent Monoacylglycerol Lipase Probes Enable Translational Research” (Journal of the American Chemical Society, 2025)

Tests used:
GSK3alpha (h) = GSK3alpha (h) (Homo sapiens, UniProt P49840); test: GSK3alpha (h); conditions: read-out: Inhibition GSK3alpha (h)
[1] = target: xanthine oxidase/ superoxide O2- scavenging (Bos taurus, UniProt P80457); test: xanthine oxidase/ superoxide O2- scavenging; conditions: read-out: Inhibition xanthine oxidase/ superoxide O2- scavenging
Chain of xanthine oxidase/ superoxide O2- scavenging (P80457 whole entry): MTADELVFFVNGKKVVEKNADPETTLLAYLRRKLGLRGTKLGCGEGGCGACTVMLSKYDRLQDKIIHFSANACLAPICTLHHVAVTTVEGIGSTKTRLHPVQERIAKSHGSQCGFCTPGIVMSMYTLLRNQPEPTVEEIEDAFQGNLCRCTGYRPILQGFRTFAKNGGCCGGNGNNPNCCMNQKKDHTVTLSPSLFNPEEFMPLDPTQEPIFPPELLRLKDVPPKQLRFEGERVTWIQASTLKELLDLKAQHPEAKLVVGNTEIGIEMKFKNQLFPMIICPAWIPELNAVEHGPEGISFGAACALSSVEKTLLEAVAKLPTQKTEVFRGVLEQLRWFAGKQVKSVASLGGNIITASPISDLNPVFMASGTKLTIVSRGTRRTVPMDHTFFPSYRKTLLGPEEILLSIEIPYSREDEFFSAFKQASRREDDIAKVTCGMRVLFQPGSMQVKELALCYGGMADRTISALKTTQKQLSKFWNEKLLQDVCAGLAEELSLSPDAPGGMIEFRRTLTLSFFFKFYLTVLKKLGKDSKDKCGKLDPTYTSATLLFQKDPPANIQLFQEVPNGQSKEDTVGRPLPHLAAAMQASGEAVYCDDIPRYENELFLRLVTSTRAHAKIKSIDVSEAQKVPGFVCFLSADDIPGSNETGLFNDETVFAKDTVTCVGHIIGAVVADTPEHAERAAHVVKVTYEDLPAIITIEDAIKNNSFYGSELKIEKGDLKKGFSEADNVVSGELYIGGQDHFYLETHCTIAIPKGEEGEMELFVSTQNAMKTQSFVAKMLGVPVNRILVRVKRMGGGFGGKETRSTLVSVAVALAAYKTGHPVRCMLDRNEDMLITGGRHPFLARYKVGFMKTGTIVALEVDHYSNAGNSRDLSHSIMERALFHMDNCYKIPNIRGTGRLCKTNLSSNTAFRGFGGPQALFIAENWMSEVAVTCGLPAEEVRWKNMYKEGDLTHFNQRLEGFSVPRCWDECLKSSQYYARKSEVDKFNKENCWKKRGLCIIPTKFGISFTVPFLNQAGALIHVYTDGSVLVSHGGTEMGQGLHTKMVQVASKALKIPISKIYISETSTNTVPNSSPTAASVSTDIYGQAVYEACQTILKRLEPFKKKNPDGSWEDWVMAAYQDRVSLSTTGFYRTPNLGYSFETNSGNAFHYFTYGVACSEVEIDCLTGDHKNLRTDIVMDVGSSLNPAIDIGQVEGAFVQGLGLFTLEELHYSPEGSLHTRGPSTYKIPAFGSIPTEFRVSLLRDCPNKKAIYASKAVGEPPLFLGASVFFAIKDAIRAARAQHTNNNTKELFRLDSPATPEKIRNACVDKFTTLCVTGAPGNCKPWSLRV

PCP = PCP (antagonist radioligand); conditions: 10 µM
ZAP70 kinase (h) = target: T1, ZAP70 kinase (h) (Homo sapiens, UniProt P43403); test: ZAP70 kinase (h); conditions: read-out: Inhibition ZAP70 kinase (h)
T1 sequence (P43403 1-619): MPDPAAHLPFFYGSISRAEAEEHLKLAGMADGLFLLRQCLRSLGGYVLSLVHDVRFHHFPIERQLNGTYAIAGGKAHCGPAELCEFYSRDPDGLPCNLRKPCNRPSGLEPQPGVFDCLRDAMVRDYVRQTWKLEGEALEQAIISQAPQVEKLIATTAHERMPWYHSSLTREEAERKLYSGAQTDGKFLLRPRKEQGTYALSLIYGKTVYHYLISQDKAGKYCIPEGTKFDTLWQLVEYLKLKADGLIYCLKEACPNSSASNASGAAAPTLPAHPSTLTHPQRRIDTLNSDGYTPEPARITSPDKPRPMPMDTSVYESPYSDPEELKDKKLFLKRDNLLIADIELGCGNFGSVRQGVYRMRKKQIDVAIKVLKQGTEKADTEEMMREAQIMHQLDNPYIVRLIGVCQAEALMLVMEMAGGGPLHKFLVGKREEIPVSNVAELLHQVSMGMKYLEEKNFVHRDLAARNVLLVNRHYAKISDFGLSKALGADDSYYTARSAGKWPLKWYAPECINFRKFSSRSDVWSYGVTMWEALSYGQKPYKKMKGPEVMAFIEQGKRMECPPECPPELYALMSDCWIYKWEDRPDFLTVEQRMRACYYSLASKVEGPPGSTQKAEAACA

PDE3B (h) = PDE3B (h) (Homo sapiens, UniProt Q13370); test: PDE3B (h); conditions: read-out: Inhibition PDE3B (h)
[2] = target: norepinephrine transporter (h) (Homo sapiens, UniProt P23975); test: norepinephrine transporter (h) (antagonist radioligand); conditions: read-out: Inhibition norepinephrine transporter (h) (antagonist radioligand)
Chain of norepinephrine transporter (h) (P23975 whole entry): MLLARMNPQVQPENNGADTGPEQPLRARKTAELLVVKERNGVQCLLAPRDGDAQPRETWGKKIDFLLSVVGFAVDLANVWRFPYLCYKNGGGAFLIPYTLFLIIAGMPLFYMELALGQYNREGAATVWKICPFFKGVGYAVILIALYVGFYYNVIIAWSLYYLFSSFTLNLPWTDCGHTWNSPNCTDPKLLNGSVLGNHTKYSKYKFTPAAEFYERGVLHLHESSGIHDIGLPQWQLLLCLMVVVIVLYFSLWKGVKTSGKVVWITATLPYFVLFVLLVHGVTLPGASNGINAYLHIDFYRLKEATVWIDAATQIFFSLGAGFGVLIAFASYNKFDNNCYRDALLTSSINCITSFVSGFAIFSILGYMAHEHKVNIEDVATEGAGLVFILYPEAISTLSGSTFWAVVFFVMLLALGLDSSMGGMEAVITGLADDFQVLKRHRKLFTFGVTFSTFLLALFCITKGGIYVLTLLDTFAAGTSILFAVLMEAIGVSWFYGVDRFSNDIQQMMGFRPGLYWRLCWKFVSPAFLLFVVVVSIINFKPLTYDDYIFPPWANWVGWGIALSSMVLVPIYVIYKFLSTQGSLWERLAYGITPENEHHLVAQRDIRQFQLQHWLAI

[3] = target: glycine (strychnine-insensitive) (Rattus norvegicus, UniProt P35439); test: glycine (strychnine-insensitive) (antagonist radioligand); conditions: read-out: Inhibition glycine (strychnine-insensitive) (antagonist radioligand)
Chain of glycine (strychnine-insensitive) (P35439 394-800): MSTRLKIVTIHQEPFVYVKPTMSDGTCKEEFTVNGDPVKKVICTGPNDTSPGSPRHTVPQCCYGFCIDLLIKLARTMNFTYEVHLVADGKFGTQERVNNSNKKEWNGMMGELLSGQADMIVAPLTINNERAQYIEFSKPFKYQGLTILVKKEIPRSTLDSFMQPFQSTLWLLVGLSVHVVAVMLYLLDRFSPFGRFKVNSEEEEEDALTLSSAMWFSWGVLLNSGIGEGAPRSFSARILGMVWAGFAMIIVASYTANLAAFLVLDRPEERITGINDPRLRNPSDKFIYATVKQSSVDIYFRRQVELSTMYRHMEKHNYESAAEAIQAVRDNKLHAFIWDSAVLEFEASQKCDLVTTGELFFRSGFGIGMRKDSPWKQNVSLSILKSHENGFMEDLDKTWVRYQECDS

alpha1A (h) = target: T2, alpha1A (h) (Homo sapiens, UniProt P35348); test: alpha1A (h) (antagonist radioligand); conditions: read-out: Inhibition alpha1A (h) (antagonist radioligand)
T2 sequence (P35348 1-466): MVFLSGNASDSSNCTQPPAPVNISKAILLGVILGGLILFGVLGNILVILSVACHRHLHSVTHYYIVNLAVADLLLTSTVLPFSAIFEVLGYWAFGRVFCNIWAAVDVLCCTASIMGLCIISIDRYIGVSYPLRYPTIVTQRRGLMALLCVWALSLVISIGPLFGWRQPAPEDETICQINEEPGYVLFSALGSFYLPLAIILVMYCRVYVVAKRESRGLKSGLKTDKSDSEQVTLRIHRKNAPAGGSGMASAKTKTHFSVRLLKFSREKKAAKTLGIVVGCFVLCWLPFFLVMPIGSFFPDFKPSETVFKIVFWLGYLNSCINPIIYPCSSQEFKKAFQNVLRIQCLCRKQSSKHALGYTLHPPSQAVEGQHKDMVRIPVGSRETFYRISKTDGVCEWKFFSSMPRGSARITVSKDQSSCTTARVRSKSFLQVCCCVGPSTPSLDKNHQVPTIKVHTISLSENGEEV

M1 (h) = target: T3, M1 (h) (Homo sapiens, UniProt P11229); test: M1 (h) (antagonist radioligand); conditions: read-out: Inhibition M1 (h) (antagonist radioligand)
T3 sequence (P11229 1-460): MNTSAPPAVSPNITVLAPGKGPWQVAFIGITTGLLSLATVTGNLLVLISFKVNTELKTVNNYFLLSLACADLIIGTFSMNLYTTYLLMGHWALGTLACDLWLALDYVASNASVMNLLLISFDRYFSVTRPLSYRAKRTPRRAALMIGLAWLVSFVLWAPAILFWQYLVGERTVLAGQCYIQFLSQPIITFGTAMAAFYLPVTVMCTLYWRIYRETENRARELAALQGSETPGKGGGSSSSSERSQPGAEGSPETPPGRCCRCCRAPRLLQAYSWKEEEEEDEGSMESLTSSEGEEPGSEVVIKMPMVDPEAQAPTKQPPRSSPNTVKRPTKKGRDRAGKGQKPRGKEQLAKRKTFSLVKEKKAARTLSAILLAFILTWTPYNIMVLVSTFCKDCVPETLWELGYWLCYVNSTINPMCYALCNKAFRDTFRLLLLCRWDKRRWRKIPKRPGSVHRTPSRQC

D1 (h) = D1 (h) (Homo sapiens, UniProt P21728); test: D1 (h) (antagonist radioligand); conditions: read-out: Inhibition D1 (h) (antagonist radioligand)
Chain of D1 (h) (P21728 whole entry): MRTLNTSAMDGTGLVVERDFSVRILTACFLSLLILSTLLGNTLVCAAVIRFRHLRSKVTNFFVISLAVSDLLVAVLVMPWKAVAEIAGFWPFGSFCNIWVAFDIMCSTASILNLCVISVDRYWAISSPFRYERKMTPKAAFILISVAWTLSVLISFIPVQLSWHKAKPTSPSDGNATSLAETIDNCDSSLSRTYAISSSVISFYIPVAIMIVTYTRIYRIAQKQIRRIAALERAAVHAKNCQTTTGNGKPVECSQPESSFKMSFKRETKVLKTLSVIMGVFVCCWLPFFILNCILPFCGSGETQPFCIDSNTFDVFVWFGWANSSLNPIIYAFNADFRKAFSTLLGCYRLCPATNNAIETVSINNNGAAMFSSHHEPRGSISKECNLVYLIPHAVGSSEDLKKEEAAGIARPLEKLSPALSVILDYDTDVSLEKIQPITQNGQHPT

[4] = test system: Ca2+ channel (L, diltiazem site); test: Ca2+ channel (L, diltiazem site) (antagonist radioligand); conditions: 10 µM
[5] = target: N neuronal alpha4beta2 (h) (Homo sapiens, UniProt P17787+P43681); test: N neuronal alpha4beta2 (h) (agonist radioligand); conditions: read-out: Inhibition N neuronal alpha4beta2 (h) (agonist radioligand)
Chain of N neuronal alpha4beta2 (h) (P43681 29-627 limits assumed): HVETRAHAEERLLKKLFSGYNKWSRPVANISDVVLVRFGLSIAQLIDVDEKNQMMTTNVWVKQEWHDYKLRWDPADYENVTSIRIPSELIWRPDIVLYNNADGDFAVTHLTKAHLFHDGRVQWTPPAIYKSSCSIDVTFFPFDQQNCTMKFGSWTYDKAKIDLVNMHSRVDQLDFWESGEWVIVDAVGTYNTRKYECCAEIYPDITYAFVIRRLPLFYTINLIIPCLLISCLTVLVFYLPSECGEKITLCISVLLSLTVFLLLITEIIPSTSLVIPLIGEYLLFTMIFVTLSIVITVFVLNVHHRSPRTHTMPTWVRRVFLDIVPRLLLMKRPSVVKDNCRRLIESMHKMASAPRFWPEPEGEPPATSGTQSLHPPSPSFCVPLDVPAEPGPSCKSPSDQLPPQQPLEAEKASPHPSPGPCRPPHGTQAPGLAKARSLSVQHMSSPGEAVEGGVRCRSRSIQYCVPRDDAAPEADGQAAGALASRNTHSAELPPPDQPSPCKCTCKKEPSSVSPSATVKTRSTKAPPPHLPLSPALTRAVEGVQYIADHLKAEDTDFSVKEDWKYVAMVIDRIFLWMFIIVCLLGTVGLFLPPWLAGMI
Chain of N neuronal alpha4beta2 (h) (P17787 26-502): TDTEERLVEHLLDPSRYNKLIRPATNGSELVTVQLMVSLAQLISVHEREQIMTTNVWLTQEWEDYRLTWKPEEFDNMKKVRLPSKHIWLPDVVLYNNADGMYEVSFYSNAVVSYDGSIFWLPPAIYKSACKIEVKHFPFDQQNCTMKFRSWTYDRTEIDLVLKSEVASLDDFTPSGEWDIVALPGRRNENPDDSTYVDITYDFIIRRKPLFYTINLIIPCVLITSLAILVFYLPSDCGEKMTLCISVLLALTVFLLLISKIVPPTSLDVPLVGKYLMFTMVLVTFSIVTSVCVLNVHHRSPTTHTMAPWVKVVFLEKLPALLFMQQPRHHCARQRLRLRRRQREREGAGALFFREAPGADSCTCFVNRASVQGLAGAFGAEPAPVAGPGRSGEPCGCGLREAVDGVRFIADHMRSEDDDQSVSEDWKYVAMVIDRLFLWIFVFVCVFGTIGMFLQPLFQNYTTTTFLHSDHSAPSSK

Chain of GSK3alpha (h) (P49840 whole entry): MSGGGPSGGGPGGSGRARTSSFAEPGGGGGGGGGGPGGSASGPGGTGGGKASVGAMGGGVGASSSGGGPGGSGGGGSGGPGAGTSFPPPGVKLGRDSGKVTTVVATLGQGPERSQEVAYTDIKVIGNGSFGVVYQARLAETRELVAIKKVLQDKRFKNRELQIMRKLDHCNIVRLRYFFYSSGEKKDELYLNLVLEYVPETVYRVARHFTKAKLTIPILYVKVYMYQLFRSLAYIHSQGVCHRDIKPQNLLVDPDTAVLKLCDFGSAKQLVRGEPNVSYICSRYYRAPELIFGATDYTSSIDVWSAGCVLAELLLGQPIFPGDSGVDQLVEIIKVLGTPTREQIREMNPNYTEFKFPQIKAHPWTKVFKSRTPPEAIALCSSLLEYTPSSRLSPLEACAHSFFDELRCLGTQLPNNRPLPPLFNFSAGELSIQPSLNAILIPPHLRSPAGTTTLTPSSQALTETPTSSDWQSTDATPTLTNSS

Row | SMILES | inhibition at 10 µM (GSK3alpha (h)) [%] | inhibition at 10 µM [1] [%] | Inhibition PCP (antagonist radioligand) (PCP) | inhibition at 10 µM (ZAP70 kinase (h)) [%] | inhibition at 10 µM (PDE3B (h)) [%] | inhibition at 10 µM [2] [%] | inhibition at 10 µM [3] [%] | inhibition at 10 µM (alpha1A (h)) [%] | inhibition at 10 µM (M1 (h)) [%] | inhibition at 10 µM (D1 (h)) [%] | Inhibition Ca2+ channel (L, diltiazem site) (antagonist radioligand) [4] | inhibition at 10 µM [5] [%]
1 | O=C(O[C@H](CO)C(F)(F)F)N1CC2(CC(CC3=C4C=CC=[N+]4[B-](F)(F)n4cccc43)C2)C1 [Compound 1] | 0.3 | -29.7 | 6,90% | 4.3 | 15.9 | 7.4 | -6.7 | 7.6 | 33.5 | 8.1 | 20,60% | -18.3
2 | O=C(OC(C(F)(F)F)C(F)(F)F)N1CC2(CC(CC3=C4C=CC=[N+]4[B-](F)(F)n4cccc43)C2)C1 [Compound 2] | -3.4 | 1.8 | -5,50% | -2 | 6.3 | -0.5 | 6.5 | -4.6 | 26 | -1.2 | -14,00% | -1.7
3 | O=C(OC(C(F)(F)F)C(F)(F)F)N1CC2(CC(CC3=C4C=CC(c5ccc[nH]5)=[N+]4[B-](F)(F)n4cccc43)C2)C1 [Compound 2a] | -5.8 | 7.8 | -18,80% | 2.3 | 12.6 | 6.3 | -2 | -3.4 | -0.7 | 6.1 | 9,70% | 4.2
4 | O=C1CO[C@H]2CCN(C(=O)N3CC4(CC(CC5=C6C=CC(c7ccc[nH]7)=[N+]6[B-](F)(F)n6cccc65)C4)C3)C[C@H]2N1 [Compound 4a] | -24.8 | 24.1 | 3,60% | 5.4 | 13 | 12.2 | 3.1 | 45.5 | 4 | 7.5 | 6,20% | -0.6
5 | O=C(N1CC2(CC(CC3=C4C=CC=[N+]4[B-](F)(F)n4cccc43)C2)C1)N1CC2(CC(n3cnc(C4CC4)n3)C2)C1 [Compound 5] | -1.8 | -16.6 | -14,20% | 6.9 | 10.7 | 8.6 | -20.3 | 2.1 | 14.7 | 7.3 | 1,70% | -16.6
